Source: PubChem BioAssay AID330 (DTP/NCI, 2004)
Values joined by “and” are separate entries in the source; they are usually repeats but may differ in a detail not shown here. Equal entries are not always repeated. Inconclusive results and toxic doses are left out. How the source made its calls: active means survival T/C of 150% or more; inactive means T/C below 125% in these data.

System: P388 leukemia ip, CD2F1 mice, survival T/C
Experiment: NCI In Vivo Anticancer Drug Screen. Data for tumor model P388 Leukemia (intraperitoneal) in CD2F1 (CDF1) mice
Details: endpoint: median survival time, higher = longer survival
Method in brief: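 Mice carrying the transplanted tumor received test compound or vehicle. Survival was recorded in each group, and the value is the treated-group measurement divided by that of the vehicle-treated control group.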

[1] = dose: 50.0 mg/kg/injection, schedule: Q01DX009 (ip), vehicle: saline
[2] = dose: 200.0 mg/kg/injection, schedule: Q01DX009 (ip), vehicle: saline
[3] = dose: 100.0 mg/kg/injection, schedule: Q04DX003 (ip), vehicle: saline with Tween-80
[4] = dose: 60.0 mg/kg/injection, schedule: Q01DX005 (ip), vehicle: saline with Tween-80
[5] = dose: 120.0 mg/kg/injection, schedule: Q01DX005 (ip), vehicle: saline with Tween-80
[6] = dose: 50.0 mg/kg/injection, schedule: Q01DX009 (ip), vehicle: saline with Tween-80
[7] = dose: 100.0 mg/kg/injection, schedule: Q01DX009 (ip), vehicle: saline with Tween-80
[8] = dose: 240.0 mg/kg/injection, schedule: Q01DX005 (ip), vehicle: saline with Tween-80
[9] = dose: 50.0 mg/kg/injection, schedule: Q01DX005 (ip), vehicle: saline with Tween-80
[10] = dose: 100.0 mg/kg/injection, schedule: Q01DX005 (ip), vehicle: saline with Tween-80
[11] = dose: 50.0 mg/kg/injection, schedule: Q01DX005 (ip), vehicle: Klucel (hydroxypropylcellulose) (HPC)
[12] = dose: 60.0 mg/kg/injection, schedule: Q01DX005 (ip), vehicle: Klucel (hydroxypropylcellulose) (HPC)
[13] = dose: 120.0 mg/kg/injection, schedule: Q01DX005 (ip), vehicle: Klucel (hydroxypropylcellulose) (HPC)
[14] = dose: 25.0 mg/kg/injection, schedule: Q01DX009 (ip), vehicle: saline with Tween-80
[15] = dose: 100.0 mg/kg/injection, schedule: Q01DX005 (ip), vehicle: Klucel (hydroxypropylcellulose) (HPC)
[16] = dose: 200.0 mg/kg/injection, schedule: Q01DX005 (ip), vehicle: Klucel (hydroxypropylcellulose) (HPC)
[17] = dose: 100.0 mg/kg/injection, schedule: Q01DX009 (ip), vehicle: saline

Measured: T/C

CN(C)CC(CN(C)C)C(=O)/C=C/c1ccc(Cl)cc1Cl
inactive: dose: 7.5 mg/kg/injection, schedule: Q01DX005 (ip), vehicle: saline 104 % of control | dose: 15.0 mg/kg/injection, schedule: Q01DX005 (ip), vehicle: saline 97 % of control | dose: 30.0 mg/kg/injection, schedule: Q01DX005 (ip), vehicle: saline 100 % of control

COc1cc(=O)cc2n(-c3cc(OC)c(O)c(OC)c3)c3ccccc3nc1-2
inactive: dose: 12.5 mg/kg/injection, schedule: Q01DX009 (ip), vehicle: saline 100 % of control | dose: 25.0 mg/kg/injection, schedule: Q01DX009 (ip), vehicle: saline 104 % of control | [1] 102 % of control and 88 % of control | [2] 98 % of control

CSc1ncc(Br)c(C(=O)O)n1
inactive: [3] 100 % of control | dose: 200.0 mg/kg/injection, schedule: Q04DX003 (ip), vehicle: saline with Tween-80 100 % of control | dose: 400.0 mg/kg/injection, schedule: Q04DX003 (ip), vehicle: saline with Tween-80 100 % of control

C1CC2CCC(N3CCCC3)C(C1)C21OCCO1 (stereo not drawn)
inactive: [4] 93 % of control | [5] 92 % of control

CC(C)(C)SC(=O)c1ccco1
inactive: [6] 118 % of control | [7] 114 % of control

CC1(C)NN=C([N+](=O)[O-])C1c1ccccc1 (stereo not drawn)
inactive: [4] 107 % of control | [5] 111 % of control | [8] 107 % of control

O=CN1CCN(c2ccc([N+](=O)[O-])c3no[n+]([O-])c23)CC1
inactive: dose: 1.87 mg/kg/injection, schedule: Q01DX009 (ip), vehicle: saline 107 % of control | dose: 1.87 mg/kg/injection, schedule: Q01DX009 (ip), vehicle: suspension in saline 94 % of control | dose: 3.75 mg/kg/injection, schedule: Q01DX009 (ip), vehicle: saline 92 % of control | dose: 3.75 mg/kg/injection, schedule: Q01DX009 (ip), vehicle: suspension in saline 113 % of control | dose: 7.5 mg/kg/injection, schedule: Q01DX009 (ip), vehicle: saline 86 % of control | dose: 7.5 mg/kg/injection, schedule: Q01DX009 (ip), vehicle: suspension in saline 116 % of control | dose: 15.0 mg/kg/injection, schedule: Q01DX009 (ip), vehicle: saline 91 % of control | dose: 15.0 mg/kg/injection, schedule: Q01DX009 (ip), vehicle: suspension in saline 116 % of control

CCCCCCCCCCCCCC(CCCCCCCC)CCCCCCCC
inactive: dose: 50.0 mg/kg/injection, schedule: Q01DX001 (ip), vehicle: saline sonified 100 % of control | dose: 100.0 mg/kg/injection, schedule: Q01DX001 (ip), vehicle: saline sonified 113 % of control | dose: 200.0 mg/kg/injection, schedule: Q01DX001 (ip), vehicle: saline sonified 100 % of control

OC(c1cc2cc(Cl)ccc2c2cc(C(F)(F)F)ccc12)C1CCCCN1 (stereo not drawn)
inactive: dose: 6.25 mg/kg/injection, schedule: Q01DX009 (ip), vehicle: saline with Tween-80 106 % of control | dose: 12.5 mg/kg/injection, schedule: Q01DX009 (ip), vehicle: saline with Tween-80 106 % of control

C1CCN(P2(N3CCCCC3)=NP(N3CCCCC3)(N3CCCCC3)=NP(N3CCCCC3)(N3CCCCC3)=NP(N3CCCCC3)(N3CCCCC3)=N2)CC1
inactive: [9] 96 % of control | [10] 88 % of control

N#CC(C#N)=NNc1ccc2cn[nH]c2c1
inactive: dose: 12.5 mg/kg/injection, schedule: Q01DX005 (ip), vehicle: Klucel (hydroxypropylcellulose) (HPC) 101 % of control | dose: 25.0 mg/kg/injection, schedule: Q01DX005 (ip), vehicle: Klucel (hydroxypropylcellulose) (HPC) 105 % of control and 107 % of control | [11] 116 % of control and 119 % of control and 120 % of control

COc1cc(O)c2c(-c3cc(O)ccc3O)cc(=O)oc2c1
inactive: [12] 94 % of control | [13] 88 % of control | dose: 240.0 mg/kg/injection, schedule: Q01DX005 (ip), vehicle: Klucel (hydroxypropylcellulose) (HPC) 96 % of control

O=c1[nH]cnc2nc(S(=O)(=O)F)[nH]c12
inactive: [9] 103 % of control | [10] 103 % of control | dose: 200.0 mg/kg/injection, schedule: Q01DX005 (ip), vehicle: saline with Tween-80 103 % of control

COc1cc2c(cc1OC)C(C(=O)O)C1c3cc4c(cc3CCN1C2=O)OCO4 (stereo not drawn)
inactive: dose: 50.0 mg/kg/injection, schedule: Q04DX003 (ip), vehicle: distilled water + Tween-80 102 % of control and 115 % of control | dose: 100.0 mg/kg/injection, schedule: Q04DX003 (ip), vehicle: distilled water + Tween-80 105 % of control and 100 % of control | dose: 200.0 mg/kg/injection, schedule: Q04DX003 (ip), vehicle: distilled water + Tween-80 113 % of control and 100 % of control | dose: 400.0 mg/kg/injection, schedule: Q04DX003 (ip), vehicle: distilled water + Tween-80 88 % of control and 100 % of control

CC(C)=CCCC(=O)Cc1nc2nnc(N)n2nc1CC(=O)CCC=C(C)C
inactive: dose: 60.0 mg/kg/injection, schedule: Q01DX005 (ip), vehicle: saline 100 % of control | dose: 120.0 mg/kg/injection, schedule: Q01DX005 (ip), vehicle: saline 98 % of control | dose: 240.0 mg/kg/injection, schedule: Q01DX005 (ip), vehicle: saline 104 % of control

Sc1ccccc1.[Ag]
inactive: [14] 97 % of control | [6] 105 % of control | [7] 96 % of control

O=C1C=C2CCCCCCCC(C1)C2 (stereo not drawn)
inactive: [11] 113 % of control | [15] 108 % of control | [16] 110 % of control

CC(C)(C)C[C](C)(c1ccccc1)[Sn]([CH3])([CH3])[CH3] (stereo not drawn)
inactive: dose: 50.0 mg/kg/injection, schedule: Q01DX009 (ip), vehicle: Klucel (hydroxypropylcellulose) (HPC) 94 % of control | dose: 100.0 mg/kg/injection, schedule: Q01DX009 (ip), vehicle: Klucel (hydroxypropylcellulose) (HPC) 102 % of control | dose: 200.0 mg/kg/injection, schedule: Q01DX009 (ip), vehicle: Klucel (hydroxypropylcellulose) (HPC) 102 % of control

COC(=O)CC/C=N/NC(N)=O
inactive: [1] 96 % of control | [17] 114 % of control | [2] 114 % of control

O=C(Nc1ccc(F)cc1)N1CCOCC1
inactive: [4] 98 % of control | [5] 93 % of control | [8] 93 % of control

COC(=O)C(=O)C(C#N)c1ccc(C)cc1 (stereo not drawn)
inactive: [4] 104 % of control | [5] 104 % of control | [8] 103 % of control

N#Cc1nnc2cc(-c3ccccc3)nn2c1-c1ccco1
inactive: [12] 98 % of control | [13] 90 % of control

CCCCCCCCCCCCCCCCCC(=O)NCNC(=O)CCCCCCCCCCCCCCCCC
inactive: dose: 4.68 mg/kg/injection, schedule: Q01DX009 (ip), vehicle: saline with Tween-80 100 % of control | dose: 9.37 mg/kg/injection, schedule: Q01DX009 (ip), vehicle: saline with Tween-80 100 % of control | dose: 9.37 mg/kg/injection, schedule: Q04DX003 (ip), vehicle: saline 100 % of control | dose: 18.75 mg/kg/injection, schedule: Q01DX009 (ip), vehicle: saline with Tween-80 90 % of control | dose: 18.75 mg/kg/injection, schedule: Q04DX003 (ip), vehicle: saline 95 % of control

C[N+](C)(C)CCOP(=O)([O-])OC1CCCC1
inactive: [1] 103 % of control | [17] 100 % of control | [2] 105 % of control

CCCCCCCC(=O)NN(Cn1c(=S)sc2ccccc21)Cn1c(=S)sc2ccccc21
inactive: [11] 96 % of control | [15] 88 % of control | [16] 88 % of control

OCCN(CCO)c1cc2c3ccccc3ccc2c2ccccc12
inactive: [11] 87 % of control | [15] 103 % of control | [16] 98 % of control

CCN1C2=NCCN2S(=O)(=O)c2ccccc21
inactive: [4] 96 % of control | [5] 97 % of control | [8] 97 % of control

Nc1nc2[nH]ncc2c(=O)[nH]1
inactive: [14] 90 % of control | [6] 100 % of control | dose: 50.0 mg/kg/injection, schedule: Q04DX003 (ip), vehicle: saline with Tween-80 104 % of control | [7] 90 % of control | [3] 109 % of control

OCCN(CCO)Cc1nc2cc(Cl)c(Cl)cc2[nH]1
inactive: dose: 50.0 mg/kg/injection, schedule: Q01DX005 (ip), vehicle: saline 97 % of control | dose: 100.0 mg/kg/injection, schedule: Q01DX005 (ip), vehicle: saline 112 % of control | dose: 200.0 mg/kg/injection, schedule: Q01DX005 (ip), vehicle: saline 90 % of control
